The text below walks through data of US20020026053A1, “Novel 3-(substituted) -2- indolinones compounds and use thereof as inhibitors of protein kinase activity” (priority 1997, published 2002).

The test has as its system FLK-1 receptor. The experiment in a line: FLK-1 Assay (cellular/catalytic ELISA, VEGF-stimulated phosphotyrosine). Details: concentration or dose not given beside the values. Particulars: protocol P.110. It is filed as cell-based. The procedure, abridged:
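NIH3T3 C7#3 cells engineered to express Flk-1 were serum-starved overnight (0.1% FBS), then exposed to compound for 2 h at 37 °C (final dilution 1:200, 0.5% DMSO) before VEGF stimulation. Lysates captured on anti-FLK-1 antiserum plates; phosphotyrosine detected by UB40 antibody/POD-ABTS ELISA versus untreated controls.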
(In general: An ELISA detects its analyte on a solid surface through an enzyme-linked reagent.)

`COC1CCCN1C=C1C(=O)Nc2c(Br)cc(Br)cc21` (racemic) [10740/A04]: the “Flk Kinase % Inhibition (P.110)” value is 1.3%.

Turning to `COC1CCCN1C=C1C(=O)Nc2ccc(I)cc21` (racemic) [10740/B04], the “Flk Kinase % Inhibition (P.110)” value is −0.3%. With `Cc1c(Br)cc(Br)c2c1C(=Cc1ccc(CO)o1)C(=O)N2` [10739/H11], the “Flk Kinase % Inhibition (P.110)” value is on record as −7.6%. The same measure for `O=C1Nc2c(Br)cc(Br)cc2C1=Cc1cnc2ccccc2c1` [10740/A02]: 5.7%; for `O=C1Nc2c(Br)cc(Br)cc2C1=Cc1ccnc2ccccc12` [10740/A03]: 4.2%; for `O=C1Nc2c(Br)cc(Br)cc2C1=Cc1ccsc1` [10740/A05]: −13.1%. In the case of `O=C1Nc2c(Br)cc(Br)cc2C1=Cc1ccc2ccccc2n1` [10740/A06], the “Flk Kinase % Inhibition (P.110)” value is listed as −8.7%. As to `Cn1cc(C=C2C(=O)Nc3c(Br)cc(Br)cc32)c2ccccc21` [10740/A07], the “Flk Kinase % Inhibition (P.110)” value is reported as −18.3%. Regarding `Cc1[nH]c2ccccc2c1C=C1C(=O)Nc2c(Br)cc(Br)cc21` [10740/A08], the “Flk Kinase % Inhibition (P.110)” value is given as −18.3%.

`O=C1Nc2c(Br)cc(Br)cc2C1=Cc1cc(Br)cs1` [10740/A10]: the “Flk Kinase % Inhibition (P.110)” value is given as −7.7%. Consider `CCCCOc1ccc(C=C2C(=O)Nc3c(Br)cc(Br)cc32)cc1` [10740/A11], for which the “Flk Kinase % Inhibition (P.110)” value was −3.5%. In the case of `O=C1Nc2ccc(I)cc2C1=Cc1cnc2ccccc2c1` [10740/B02], the “Flk Kinase % Inhibition (P.110)” value is on record as −17.0%. As for `O=C1Nc2ccc(I)cc2C1=Cc1ccnc2ccccc12` [10740/B03], the “Flk Kinase % Inhibition (P.110)” value was −9.3%.

With `O=C1Nc2ccc(I)cc2C1=Cc1ccsc1` [10740/B05], the “Flk Kinase % Inhibition (P.110)” value was −11.6%. `O=C1Nc2ccc(I)cc2C1=Cc1ccc2ccccc2n1` [10740/B06]: the “Flk Kinase % Inhibition (P.110)” value was −5.9%.

Turning to `Cn1cc(C=C2C(=O)Nc3ccc(I)cc32)c2ccccc21` [10740/B07], the “Flk Kinase % Inhibition (P.110)” value was −8.5%. Regarding `Cc1[nH]c2ccccc2c1C=C1C(=O)Nc2ccc(I)cc21` [10740/B08], the “Flk Kinase % Inhibition (P.110)” value worked out at 6.6%. On to `O=C1Nc2ccc(I)cc2C1=Cc1cc(Br)cs1` [10740/B10], for which the “Flk Kinase % Inhibition (P.110)” value worked out at 11.8%. In the case of `CCCCOc1ccc(C=C2C(=O)Nc3ccc(I)cc32)cc1` [10740/B11], the “Flk Kinase % Inhibition (P.110)” value turned out to be 0.7%.

Turning to `Cc1c(Br)ccc2c1C(=Cc1cnc3ccccc3c1)C(=O)N2` [10740/C02], the “Flk Kinase % Inhibition (P.110)” value was −5.9%.

For the compound `Cc1c(Br)ccc2c1C(=Cc1ccnc3ccccc13)C(=O)N2` [10740/C03], the “Flk Kinase % Inhibition (P.110)” value was −129.3%. For the compound `COC1CCCN1C=C1C(=O)Nc2ccc(Br)c(C)c21` (stereo not shown) [10740/C04], the “Flk Kinase % Inhibition (P.110)” value is −3.4%. With `Cc1c(Br)ccc2c1C(=Cc1ccsc1)C(=O)N2` [10740/C05], the “Flk Kinase % Inhibition (P.110)” value is −19.1%. For `Cc1c(Br)ccc2c1C(=Cc1ccc3ccccc3n1)C(=O)N2` [10740/C06], the “Flk Kinase % Inhibition (P.110)” value is recorded as −19.1%. To `Cc1c(Br)ccc2c1C(=Cc1cn(C)c3ccccc13)C(=O)N2` [10740/C07] belongs 1.1%; to `Cc1[nH]c2ccccc2c1C=C1C(=O)Nc2ccc(Br)c(C)c21` [10740/C08], 4.6%.

Take `Cc1c(Br)ccc2c1C(=Cc1cc(Br)cs1)C(=O)N2` [10740/C10]: the “Flk Kinase % Inhibition (P.110)” value came out at 0.8%. For the compound `CCCCOc1ccc(C=C2C(=O)Nc3ccc(Br)c(C)c32)cc1` [10740/C11], the “Flk Kinase % Inhibition (P.110)” value is listed as 6.9%. Regarding `CNS(=O)(=O)c1ccc2c(c1)C(=Cc1cnc3ccccc3c1)C(=O)N2` [10740/D02], the “Flk Kinase % Inhibition (P.110)” value stood at 4.1%. The same measure for `CNS(=O)(=O)c1ccc2c(c1)C(=Cc1ccnc3ccccc13)C(=O)N2` [10740/D03]: 15.1%; for `CNS(=O)(=O)c1ccc2c(c1)C(=CN1CCCC1OC)C(=O)N2` (stereo not shown) [10740/D04]: −2.0%.

For the compound `CNS(=O)(=O)c1ccc2c(c1)C(=Cc1ccsc1)C(=O)N2` [10740/D05], the “Flk Kinase % Inhibition (P.110)” value was −6.3%. As for `CNS(=O)(=O)c1ccc2c(c1)C(=Cc1ccc3ccccc3n1)C(=O)N2` [10740/D06], the “Flk Kinase % Inhibition (P.110)” value came out at 9.6%. For the compound `CNS(=O)(=O)c1ccc2c(c1)C(=Cc1cn(C)c3ccccc13)C(=O)N2` [10740/D07], the “Flk Kinase % Inhibition (P.110)” value is reported as −4.5%. As to `CNS(=O)(=O)c1ccc2c(c1)C(=Cc1c(C)[nH]c3ccccc13)C(=O)N2` [10740/D08], the “Flk Kinase % Inhibition (P.110)” value was −6.4%. The same measure for `CNS(=O)(=O)c1ccc2c(c1)C(=Cc1cc(Br)cs1)C(=O)N2` [10740/D10]: 1.5%; for `CCCCOc1ccc(C=C2C(=O)Nc3ccc(S(=O)(=O)NC)cc32)cc1` [10740/D11]: 3.0%.

Take `O=C1Nc2ccc(S(=O)(=O)Nc3ccc(C(F)(F)F)cc3)cc2C1=Cc1cnc2ccccc2c1` [10740/E02]: the “Flk Kinase % Inhibition (P.110)” value was determined as 9.6%. To `O=C1Nc2ccc(S(=O)(=O)Nc3ccc(C(F)(F)F)cc3)cc2C1=Cc1ccnc2ccccc12` [10740/E03] belongs 0.2%. `COC1CCCN1C=C1C(=O)Nc2ccc(S(=O)(=O)Nc3ccc(C(F)(F)F)cc3)cc21` (stereo not shown) [10740/E04]: the “Flk Kinase % Inhibition (P.110)” value is given as 2.0%.

As for `O=C1Nc2ccc(S(=O)(=O)Nc3ccc(C(F)(F)F)cc3)cc2C1=Cc1ccsc1` [10740/E05], the “Flk Kinase % Inhibition (P.110)” value was found to be 28.7%. On to `O=C1Nc2ccc(S(=O)(=O)Nc3ccc(C(F)(F)F)cc3)cc2C1=Cc1ccc2ccccc2n1` [10740/E06], for which the “Flk Kinase % Inhibition (P.110)” value is recorded as −8.4%. As to `Cn1cc(C=C2C(=O)Nc3ccc(S(=O)(=O)Nc4ccc(C(F)(F)F)cc4)cc32)c2ccccc21` [10740/E07], the “Flk Kinase % Inhibition (P.110)” value came to 34.4%. To `Cc1[nH]c2ccccc2c1C=C1C(=O)Nc2ccc(S(=O)(=O)Nc3ccc(C(F)(F)F)cc3)cc21` [10740/E08] belongs 39.1%; to `O=C1Nc2ccc(S(=O)(=O)Nc3ccc(C(F)(F)F)cc3)cc2C1=Cc1cc(Br)cs1` [10740/E10], 11.8%; to `CCCCOc1ccc(C=C2C(=O)Nc3ccc(S(=O)(=O)Nc4ccc(C(F)(F)F)cc4)cc32)cc1` [10740/E11], 17.1%. Turning to `O=C1Nc2ccc(S(=O)(=O)N3CCOCC3)cc2C1=Cc1cnc2ccccc2c1` [10740/F02], the “Flk Kinase % Inhibition (P.110)” value came to 2.8%.

In the case of `O=C1Nc2ccc(S(=O)(=O)N3CCOCC3)cc2C1=Cc1ccnc2ccccc12` [10740/F03], the “Flk Kinase % Inhibition (P.110)” value is recorded as −0.9%.

In the case of `COC1CCCN1C=C1C(=O)Nc2ccc(S(=O)(=O)N3CCOCC3)cc21` (stereo not shown) [10740/F04], the “Flk Kinase % Inhibition (P.110)” value came out at 6.8%. Consider `O=C1Nc2ccc(S(=O)(=O)N3CCOCC3)cc2C1=Cc1ccsc1` [10740/F05], for which the “Flk Kinase % Inhibition (P.110)” value was −13.5%.

Turning to `O=C1Nc2ccc(S(=O)(=O)N3CCOCC3)cc2C1=Cc1ccc2ccccc2n1` [10740/F06], the “Flk Kinase % Inhibition (P.110)” value came out at 1.3%. Take `Cn1cc(C=C2C(=O)Nc3ccc(S(=O)(=O)N4CCOCC4)cc32)c2ccccc21` [10740/F07]: the “Flk Kinase % Inhibition (P.110)” value was −6.3%.

For the compound `Cc1[nH]c2ccccc2c1C=C1C(=O)Nc2ccc(S(=O)(=O)N3CCOCC3)cc21` [10740/F08], the “Flk Kinase % Inhibition (P.110)” value was −5.0%. To `O=C1Nc2ccc(S(=O)(=O)N3CCOCC3)cc2C1=Cc1cc(Br)cs1` [10740/F10] belongs 10.0%; to `CCCCOc1ccc(C=C2C(=O)Nc3ccc(S(=O)(=O)N4CCOCC4)cc32)cc1` [10740/F11], 8.2%; to `O=C1Nc2ccc(CCCl)cc2C1=Cc1cnc2ccccc2c1` [10740/G02], −2.6%. As to `O=C1Nc2ccc(CCCl)cc2C1=Cc1ccnc2ccccc12` [10740/G03], the “Flk Kinase % Inhibition (P.110)” value is recorded as −2.0%.

For `COC1CCCN1C=C1C(=O)Nc2ccc(CCCl)cc21` (stereo not shown) [10740/G04], the “Flk Kinase % Inhibition (P.110)” value is reported as −5.1%. `O=C1Nc2ccc(CCCl)cc2C1=Cc1ccsc1` [10740/G05]: the “Flk Kinase % Inhibition (P.110)” value is given as −18.6%. For `O=C1Nc2ccc(CCCl)cc2C1=Cc1ccc2ccccc2n1` [10740/G06], the “Flk Kinase % Inhibition (P.110)” value is on record as −19.3%. The same measure for `Cn1cc(C=C2C(=O)Nc3ccc(CCCl)cc32)c2ccccc21` [10740/G07]: 0.4%; for `Cc1[nH]c2ccccc2c1C=C1C(=O)Nc2ccc(CCCl)cc21` [10740/G08]: −0.5%. In the case of `O=C1Nc2ccc(CCCl)cc2C1=Cc1cc(Br)cs1` [10740/G10], the “Flk Kinase % Inhibition (P.110)” value is recorded as −2.8%. On to `CCCCOc1ccc(C=C2C(=O)Nc3ccc(CCCl)cc32)cc1` [10740/G11], for which the “Flk Kinase % Inhibition (P.110)” value was 3.3%. The same measure for `Cc1c(Br)cc(Br)c2c1C(=Cc1cnc3ccccc3c1)C(=O)N2` [10740/H02]: −3.7%; for `Cc1c(Br)cc(Br)c2c1C(=Cc1ccnc3ccccc13)C(=O)N2` [10740/H03]: −9.7%; for `COC1CCCN1C=C1C(=O)Nc2c(Br)cc(Br)c(C)c21` (stereo not shown) [10740/H04]: 6.0%. As for `Cc1c(Br)cc(Br)c2c1C(=Cc1ccsc1)C(=O)N2` [10740/H05], the “Flk Kinase % Inhibition (P.110)” value amounted to 5.8%. For `Cc1c(Br)cc(Br)c2c1C(=Cc1ccc3ccccc3n1)C(=O)N2` [10740/H06], the “Flk Kinase % Inhibition (P.110)” value worked out at 3.2%. With `Cc1c(Br)cc(Br)c2c1C(=Cc1cn(C)c3ccccc13)C(=O)N2` [10740/H07], the “Flk Kinase % Inhibition (P.110)” value turned out to be 10.1%. For `Cc1[nH]c2ccccc2c1C=C1C(=O)Nc2c(Br)cc(Br)c(C)c21` [10740/H08], the “Flk Kinase % Inhibition (P.110)” value amounted to 11.5%. `Cc1c(Br)cc(Br)c2c1C(=Cc1cc(Br)cs1)C(=O)N2` [10740/H10]: the “Flk Kinase % Inhibition (P.110)” value is listed as 0.4%. On to `CCCCOc1ccc(C=C2C(=O)Nc3c(Br)cc(Br)c(C)c32)cc1` [10740/H11], for which the “Flk Kinase % Inhibition (P.110)” value stood at 7.4%.
